From ChEMBL document CHEMBL4138296, “Nonacidic Chemotype Possessing N-Acylated Piperidine Moiety as Potent Farnesoid X Receptor (FXR) Antagonists” (ACS Med Chem Lett, 2018)
Calls of active or inactive are those of the source. The calls are words filed in the database; no cut-off is given here.

Target: T1, Peroxisome proliferator-activated receptor gamma (Homo sapiens) (UniProt P37231)
T1 sequence (whole entry): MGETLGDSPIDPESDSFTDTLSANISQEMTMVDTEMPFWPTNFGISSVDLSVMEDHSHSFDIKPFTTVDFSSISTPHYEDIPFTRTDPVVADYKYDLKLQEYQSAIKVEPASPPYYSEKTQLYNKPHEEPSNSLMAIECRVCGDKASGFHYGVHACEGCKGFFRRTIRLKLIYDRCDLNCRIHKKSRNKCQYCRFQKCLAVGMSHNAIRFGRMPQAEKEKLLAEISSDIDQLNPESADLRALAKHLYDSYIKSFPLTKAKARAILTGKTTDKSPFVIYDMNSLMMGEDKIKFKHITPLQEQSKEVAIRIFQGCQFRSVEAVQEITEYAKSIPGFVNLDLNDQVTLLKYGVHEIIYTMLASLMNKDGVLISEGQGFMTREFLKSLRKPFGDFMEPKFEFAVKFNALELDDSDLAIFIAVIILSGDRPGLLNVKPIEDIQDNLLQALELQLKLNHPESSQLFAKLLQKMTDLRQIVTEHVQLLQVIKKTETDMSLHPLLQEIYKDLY
Test: Antagonist activity at PPARgamma (unknown origin) assessed as inhibition of GW1929-induced response at 1 uM by luciferase reporter gene assay

In the case of `Cc1ccc2nc([C@H](CC3CCN(C(=O)C(C)C)CC3)N3C(=O)CN(c4ccc(Oc5ccccc5)cc4)C3=O)n(C)c2c1`, the inhibition is reported as “inactive”.
